# Measurements: US8563714B2, “Bridged spiro [2.4] heptane derivatives as ALX receptor and/or FPRL2 agonists” (Actelion Pharmaceuticals Ltd., priority 2009, dated 2013)
# Tests used:
# human ALX receptor = target: T1, human ALX receptor (Homo sapiens, UniProt P25090); experiment: Intracellular calcium measurements (FLIPR), agonistic activity in HEK293-hALXR-Gα16 cells; assay type: cell-based; conditions: Fluo-4 calcium FLIPR, normalized to WKYMVm 10 nM
# T1 construct: expressed in transfected cells; host or cells: HEK293 (HEK293-hALXR-Gα16)
# T1 sequence (P25090 1-351): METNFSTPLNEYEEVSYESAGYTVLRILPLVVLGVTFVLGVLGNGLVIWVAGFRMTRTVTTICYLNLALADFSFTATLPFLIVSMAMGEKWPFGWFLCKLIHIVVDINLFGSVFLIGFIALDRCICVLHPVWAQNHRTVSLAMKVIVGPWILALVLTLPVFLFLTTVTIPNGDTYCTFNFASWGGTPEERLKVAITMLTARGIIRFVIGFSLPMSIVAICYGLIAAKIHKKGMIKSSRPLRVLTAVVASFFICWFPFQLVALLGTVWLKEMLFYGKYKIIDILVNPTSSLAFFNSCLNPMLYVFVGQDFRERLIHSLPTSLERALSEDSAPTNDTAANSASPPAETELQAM
# How it was run: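 HEK293 cells expressing hALXR and Gα16 were loaded with 1 μM Fluo-4 AM and 20 mM HEPES for 60 min at 37°C, then exposed to serially diluted compound. FLIPR fluorescence was read at ex 488/em 540 nm. Baseline-subtracted peak responses were normalized to 10 nM WKYMVm.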
# human FPRL2 = target: T2, human FPRL2 (Homo sapiens, UniProt P25089); experiment: Intracellular calcium measurements (FLIPR), agonistic activity in HEK293-hFPRL2-Gα16 cells; assay type: cell-based; conditions: Fluo-4 calcium FLIPR, normalized to GLY14-Humanin 100 nM
# T2 construct: expressed in transfected cells; host or cells: HEK293 (HEK293-hFPRL2-Gα16)
# T2 sequence (P25089 1-353): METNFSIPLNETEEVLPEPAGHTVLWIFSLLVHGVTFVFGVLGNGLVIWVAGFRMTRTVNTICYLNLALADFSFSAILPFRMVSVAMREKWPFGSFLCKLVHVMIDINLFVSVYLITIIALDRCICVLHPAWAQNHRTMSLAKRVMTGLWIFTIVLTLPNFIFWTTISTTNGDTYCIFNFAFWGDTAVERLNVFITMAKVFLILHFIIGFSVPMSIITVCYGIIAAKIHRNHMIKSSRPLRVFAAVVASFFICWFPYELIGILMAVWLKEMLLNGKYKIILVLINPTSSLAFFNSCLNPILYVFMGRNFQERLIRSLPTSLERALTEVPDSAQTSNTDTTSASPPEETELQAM
# How it was run: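 Peak values after baseline subtraction are expressed relative to 100 nM Gly14-Humanin; compounds diluted in assay buffer from 10 mM DMSO stocks.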
EC50 (human ALX receptor),EC50 (human FPRL2),SMILES
10.6 µM,644 nM,"O=C(NCCCCN1CCCC1)[C@H]1[C@H](C(=O)NCc2cc(Cl)nc(Cl)c2)[C@@H]2C=C[C@H]1C21CC1 (racemic) [Example 367, (5R*)—N^5-[(2,6-Dichloropyridin-4-yl)methyl]-(6R*)—N^6-(4-pyrrolidino-butyl)-(4S*,7R*)-[4,7-ethenylene-spiro[2.4]heptane]-5,6-dicarboxamide]"
11.1 µM,255 nM,"Cc1ccc(C)c(CNC(=O)[C@H]2[C@H](C(=O)NCCCCN3CCCC3)[C@H]3C=C[C@@H]2C32CC2)c1 (racemic) [Example 368, (5R*)—N^5-(2,5-Dimethylphenyl-methyl)-(6R*)—N^6-(4-pyrrolidino-butyl)-(4S*,7R*)-[4,7-ethenylene-spiro[2.4]heptane]-5,6-dicarboxamide]"
> 25 µM,204 nM,"Cc1nc(NC(=O)[C@H]2[C@H](C(=O)NCCCCN3CCCC3)[C@H]3C=C[C@@H]2C32CC2)sc1C (racemic) [Example 369, (5R*)—N^5-(4,5-Dimethyl-thiazol-2-yl)-(6R*)—N^6-(4-pyrrolidino-butyl)-(4S*,7R*)-[4,7-ethenylene-spiro[2.4]heptane]-5,6-dicarboxamide]"
> 25 µM,180 nM,"COc1ccc(C)cc1CNC(=O)[C@H]1[C@H](C(=O)NCCCCN2CCCC2)[C@H]2C=C[C@@H]1C21CC1 (racemic) [Example 370, (5R*)—N^5-(2-Methoxy-5-methylphenyl-methyl)-(6R*)—N^6-(4-pyrrolidino-butyl)-(4S*,7R*)-[4,7-ethenylene-spiro[2.4]heptane]-5,6-dicarboxamide]"
> 25 µM,271 nM,"O=C(NCCCCN1CCCC1)[C@H]1[C@H](C(=O)NCc2c(F)ccc(F)c2Cl)[C@@H]2C=C[C@H]1C21CC1 (racemic) [Example 371, (5R*)—N^5-(2-Chloro-3,6-difluorophenyl-methyl)-(6R*)—N^6-(4-pyrrolidino-butyl)-(4S*,7R*)-[4,7-ethenylene-spiro[2.4]heptane]-5,6-dicarboxamide]"
> 25 µM,389 nM,"CC(C)Oc1ccccc1CNC(=O)[C@H]1[C@H](C(=O)NCCCCN2CCCC2)[C@H]2C=C[C@@H]1C21CC1 (racemic) [Example 372, (5R*)—N^5-(2-Isopropoxyphenyl-methyl)-(6R*)—N^6-(4-pyrrolidino-butyl)-(4S*,7R*)-[4,7-ethenylene-spiro[2.4]heptane]-5,6-dicarboxamide]"
> 25 µM,478 nM,"Cc1ccc(F)c(CNC(=O)[C@H]2[C@H](C(=O)NCCCCN3CCCC3)[C@H]3C=C[C@@H]2C32CC2)c1Cl (racemic) [Example 373, (5R*)—N^5-(2-Chloro-6-fluoro-3-methylphenyl-methyl)-(6R*)—N^6-(4-pyrrolidino-butyl)-(4S*,7R*)-[4,7-ethenylene-spiro[2.4]heptane]-5,6-dicarboxamide]"
2.62 µM,237 nM,"COc1ccc(CNC(=O)[C@H]2[C@H](C(=O)NCCCCN3CCCC3)[C@H]3C=C[C@@H]2C32CC2)cc1Cl (racemic) [Example 374, (5R*)—N^5-(3-Chloro-4-methoxyphenyl-methyl)-(6R*)—N^6-(4-pyrrolidino-butyl)-(4S*,7R*)-[4,7-ethenylene-spiro[2.4]heptane]-5,6-dicarboxamide]"
9.05 µM,443 nM,"COc1ccc(CNC(=O)[C@H]2[C@H](C(=O)NCCCCN3CCCC3)[C@H]3C=C[C@@H]2C32CC2)cc1OC (racemic) [Example 375, (5R*)—N^5-(3,4-Dimethoxyphenyl-methyl)-(6R*)—N^6-(4-pyrrolidino-butyl)-(4S*,7R*)-[4,7-ethenylene-spiro[2.4]heptane]-5,6-dicarboxamide]"
10.3 µM,334 nM,"COc1ccc(CNC(=O)[C@H]2[C@H](C(=O)NCCCCN3CCCC3)[C@H]3C=C[C@@H]2C32CC2)c(OC)c1 (racemic) [Example 376, (5R*)—N^5-(2,4-Dimethoxyphenyl-methyl)-(6R*)—N^6-(4-pyrrolidino-butyl)-(4S*,7R*)-[4,7-ethenylene-spiro[2.4]heptane]-5,6-dicarboxamide]"
> 25 µM,417 nM,"COc1ccc(CCNC(=O)[C@H]2[C@H](C(=O)NCCCCN3CCCC3)[C@H]3C=C[C@@H]2C32CC2)cc1OC (racemic) [Example 377, (5R*)—N^5-(2-(3,4-Dimethoxyphenyl)ethyl)-(6R*)—N^6-(4-pyrrolidino-butyl)-(4S*,7R*)-[4,7-ethenylene-spiro[2.4]heptane]-5,6-dicarboxamide]"
8.61 µM,74 nM,"COc1ccc(CCNC(=O)[C@H]2[C@H](C(=O)NCCCCN3CCCC3)[C@H]3C=C[C@@H]2C32CC2)cc1 (racemic) [Example 378, (5R*)—N^5-(2-(4-Methoxyphenyl)ethyl)-(6R*)—N^6-(4-pyrrolidino-butyl)-(4S*,7R*)-[4,7-ethenylene-spiro[2.4]heptane]-5,6-dicarboxamide]"
8.81 µM,6.6 nM,"O=C(NCCCCN1CCCC1)[C@H]1[C@H](C(=O)NCCc2ccc(Br)cc2)[C@@H]2C=C[C@H]1C21CC1 (racemic) [Example 379, (5R*)—N^5-(2-(4-Bromophenyl)ethyl)-(6R*)—N^6-(4-pyrrolidino-butyl)-(4S*,7R*)-[4,7-ethenylene-spiro[2.4]heptane]-5,6-dicarboxamide]"
> 25 µM,103 nM,"Cc1ccc(CCNC(=O)[C@H]2[C@H](C(=O)NCCCCN3CCCC3)[C@H]3C=C[C@@H]2C32CC2)cc1C (racemic) [Example 380, (5R*)—N^5-(2-(3,4-Dimethylphenyl)ethyl)-(6R*)—N^6-(4-pyrrolidino-butyl)-(4S*,7R*)-[4,7-ethenylene-spiro[2.4]heptane]-5,6-dicarboxamide]"
7.68 µM,29 nM,"O=C(NCCCCN1CCCC1)[C@H]1[C@H](C(=O)NCCc2ccc3c(c2)OCO3)[C@@H]2C=C[C@H]1C21CC1 (racemic) [Example 383, (5R*)—N^5-(2-(Benzo[d][1,3]dioxol-5-yl)ethyl)-(6R*)—N^6-(4-pyrrolidino-butyl)-(4S*,7R*)-[4,7-ethenylene-spiro[2.4]heptane]-5,6-dicarboxamide]"
10.3 µM,72 nM,"COc1ccc(CCNC(=O)[C@H]2[C@H](C(=O)NCCCCN3CCCC3)[C@H]3C=C[C@@H]2C32CC2)cc1Br (racemic) [Example 384, (5R*)—N^5-(2-(3-Bromo-4-methoxyphenyl)ethyl)-(6R*)—N^6-(4-pyrrolidino-butyl)-(4S*,7R*)-[4,7-ethenylene-spiro[2.4]heptane]-5,6-dicarboxamide]"
> 25 µM,27 nM,"Cc1ccc(CCNC(=O)[C@H]2[C@H](C(=O)NCCCCN3CCCC3)[C@H]3C=C[C@@H]2C32CC2)c(C)c1 (racemic) [Example 385, (5R*)—N^5-(2-(2,4-Dimethylphenyl)ethyl)-(6R*)—N^6-(4-pyrrolidino-butyl)-(4S*,7R*)-[4,7-ethenylene-spiro[2.4]heptane]-5,6-dicarboxamide]"
1.04 µM,872 nM,"CNCCNC(=O)[C@H]1[C@H](C(=O)NCc2nc(C(C)=O)cs2)[C@@H]2C=C[C@H]1C21CC1 (racemic) [Example 396, (5R*)—N^5-[(4-Acetyl-thiazol-2-yl)methyl]-(6R*)—N^6-(2-methylamino-ethyl)-(4S*,7R*)-[4,7-ethenylene-spiro[2.4]heptane]-5,6-dicarboxamide]"
0.011 µM,99 nM,"O=C(NCCCCN1CCCC1)[C@H]1[C@H](C(=O)Nc2ccc(C(F)(F)F)nc2)[C@@H]2C=C[C@H]1C21CC1 (racemic) [Example 422, (5R*)—N^5-(2-Trifluoromethyl-pyridin-5-yl)-(6R*)—N^6-(4-pyrrolidin-1-yl-butyl)-(4S*,7R*)-[4,7-ethenylene-spiro[2.4]heptane]-5,6-dicarboxamide]"
0.00034 µM,1160 nM,"NCCCCNC(=O)[C@H]1[C@H](C(=O)Nc2ccc(Br)cc2)[C@@H]2C=C[C@H]1C21CC1 (relative stereo) [Example 5, (5R*)—N^5-(4-Bromophenyl)-(6R*)—N^6-(4-amino-butyl)-(4S*,7R*)-[4,7-ethenylene-spiro[2.4]heptane]-5,6-dicarboxamide]"
